Results reported in US20230312550A1, “N-(2-(4-CYANOTHIAZOLIDIN-3-YL)-2-OXOETHYL)-QUINOLINE-4-CARBOXAMIDES” (AstraZeneca AB, priority 2020, published 2023).
Converted amounts (≈) assume the structure as drawn.

How the values were obtained:
[1] = target: Prolyl endopeptidase, Prolyl Oligopeptidase (hPREP) (Homo sapiens (Human), UniProt P48147); assay: hPrep inhibition assay; type: biochemical; conditions: hPREP 0.6 nM, Z-Gly-Pro-amino-methylcoumarin 50 μM; read-out: PREP IC50
Method in brief: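 Recombinant human PREP at 0.6 nM final with Z-Gly-Pro-AMC substrate at 50 μM final in Tris-HCl pH 7.5, NaCl, Triton X-100, glutathione; 15 min rt preincubation then 20 min rt reaction in dark. AMC fluorescence (ex 340/em 460 nm); IC50 from one-site dose-response fit of % inhibition.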

[2] = Metabolic stability in human hepatocytes (hHep); type: in vitro ADME; conditions: n = 1 or geometric mean of n = 2
[3] = Metabolic stability in human liver microsomes (HLM); conditions: human, HLM CLint, n = 1 or average of n = 2-3
Description: Metabolic stability in HLM was measured as described in J Comput Aided Mol Des 2015, 29, 795.

[4] = Metabolic stability in rat hepatocytes (rHep); conditions: n = 1 or geometric mean of n = 2-3
[5] = Caco-2 cell permeability; conditions: human
Description: Caco-2 cell permeability was measured as described in Mol Pharm 2017, 14, 1601.

[6] = target: human Fibroblast activation protein alpha (hFAP) (Homo sapiens (Human), UniProt Q12884); assay: hFAP inhibition assay (tight binders); type: biochemical; conditions: Ala-Pro-AMC 20 μM, n = 1 or geometric mean n = 2-6; further: hFAP 2.4 pM
human Fibroblast activation protein alpha (hFAP), sequence (Q12884 38-760): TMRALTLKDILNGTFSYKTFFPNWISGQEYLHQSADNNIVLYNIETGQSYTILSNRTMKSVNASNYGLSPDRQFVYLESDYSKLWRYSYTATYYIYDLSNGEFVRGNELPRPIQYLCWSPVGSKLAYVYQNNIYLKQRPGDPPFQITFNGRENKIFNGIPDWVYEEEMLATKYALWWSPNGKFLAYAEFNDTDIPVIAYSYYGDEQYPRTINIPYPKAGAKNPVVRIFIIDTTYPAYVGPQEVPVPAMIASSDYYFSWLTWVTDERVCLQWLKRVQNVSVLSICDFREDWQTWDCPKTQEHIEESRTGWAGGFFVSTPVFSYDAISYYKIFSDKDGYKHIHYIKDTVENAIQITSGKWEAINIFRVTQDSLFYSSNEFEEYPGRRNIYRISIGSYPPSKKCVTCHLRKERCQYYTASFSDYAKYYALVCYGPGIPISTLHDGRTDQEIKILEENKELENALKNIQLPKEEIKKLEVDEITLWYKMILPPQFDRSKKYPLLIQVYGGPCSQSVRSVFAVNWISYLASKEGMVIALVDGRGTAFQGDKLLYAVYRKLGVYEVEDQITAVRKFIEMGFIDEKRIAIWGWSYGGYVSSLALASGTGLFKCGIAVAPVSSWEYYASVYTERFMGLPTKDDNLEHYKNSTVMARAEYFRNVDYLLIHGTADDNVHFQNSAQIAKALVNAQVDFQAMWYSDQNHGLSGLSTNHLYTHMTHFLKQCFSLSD
Description: The plates were read on a PHERAstar® reader with excitation 340 nm and emission 460 nm. Data were analyzed in Genedata Screener®. IC50 values were determined by plotting % inhibition versus log compound concentration and using a one site dose response model.

[7] = target: hFAP (M39-A757) (Homo sapiens (Human), UniProt Q12884); assay: hFAP binding assay (surface plasmon resonance); conditions: SPR, 20° C.; for hFAP Binding assay k(off) / hFAP Binding assay k(on): single cycle kinetics; for Kd: n = 1 or geometric mean n = 2-4
hFAP (M39-A757), sequence (Q12884 39-757): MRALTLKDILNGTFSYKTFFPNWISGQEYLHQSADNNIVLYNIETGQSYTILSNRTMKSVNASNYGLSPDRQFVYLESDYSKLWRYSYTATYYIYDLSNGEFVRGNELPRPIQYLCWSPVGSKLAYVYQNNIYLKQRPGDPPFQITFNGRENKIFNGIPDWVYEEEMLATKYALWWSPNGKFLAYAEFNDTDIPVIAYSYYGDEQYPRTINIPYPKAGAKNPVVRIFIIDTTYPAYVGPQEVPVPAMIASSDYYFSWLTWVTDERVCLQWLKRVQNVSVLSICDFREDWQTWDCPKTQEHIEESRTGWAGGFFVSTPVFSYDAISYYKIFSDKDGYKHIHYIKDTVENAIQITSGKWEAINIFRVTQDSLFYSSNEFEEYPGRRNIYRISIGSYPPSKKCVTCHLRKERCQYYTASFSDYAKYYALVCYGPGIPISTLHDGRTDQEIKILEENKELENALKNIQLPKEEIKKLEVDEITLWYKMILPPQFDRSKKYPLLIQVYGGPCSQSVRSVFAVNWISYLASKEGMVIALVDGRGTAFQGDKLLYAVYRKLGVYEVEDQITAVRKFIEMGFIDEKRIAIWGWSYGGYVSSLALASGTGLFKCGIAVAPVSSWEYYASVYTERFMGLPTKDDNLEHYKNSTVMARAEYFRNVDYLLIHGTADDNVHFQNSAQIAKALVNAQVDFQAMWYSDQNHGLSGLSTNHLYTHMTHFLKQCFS

[8] = target: T1, FAP (Homo sapiens (Human), UniProt Q12884); assay: FAP plasma inhibition assay, human plasma; type: biochemical; conditions: human plasma diluted 1:40, Ala-Pro-AMC 75 μM
Description: (§1) This assay was adapted from the method described in Example 237 for detection of FAP target engagement enzyme activity in plasma. Plasma (anticoagulant K2EDTA) was used as the enzyme source: Human plasma (Pooled from AZ Biobank), Mouse plasma (AZ AST Biobank), and Cynomolgus plasma (BioIVT, #NHP00PLK2FNN, lot CYN222895). 384-Well black fluotrack PS plates (Greiner 781076) were used. 20 μL diluted plasma (Cynomolgus and Human plasma dilution 1:40, Mouse plasma dilution 1:67) in buffer (PBS, 0.1% BSA) was added to 0.6 μL compounds (in DMSO). Compounds were tested using 10 CR, 3 fold dilution series from 500 nM FAC. Two replicates for each assay point were run on the same plate. A fluorescence blank read was taken before substrate addition. […] Plates were incubated for 40 min at rt in the dark. […] IC50 values were determined by plotting % inhibition versus log compound concentration.
Target sequence in this assay (Q12884 24-760): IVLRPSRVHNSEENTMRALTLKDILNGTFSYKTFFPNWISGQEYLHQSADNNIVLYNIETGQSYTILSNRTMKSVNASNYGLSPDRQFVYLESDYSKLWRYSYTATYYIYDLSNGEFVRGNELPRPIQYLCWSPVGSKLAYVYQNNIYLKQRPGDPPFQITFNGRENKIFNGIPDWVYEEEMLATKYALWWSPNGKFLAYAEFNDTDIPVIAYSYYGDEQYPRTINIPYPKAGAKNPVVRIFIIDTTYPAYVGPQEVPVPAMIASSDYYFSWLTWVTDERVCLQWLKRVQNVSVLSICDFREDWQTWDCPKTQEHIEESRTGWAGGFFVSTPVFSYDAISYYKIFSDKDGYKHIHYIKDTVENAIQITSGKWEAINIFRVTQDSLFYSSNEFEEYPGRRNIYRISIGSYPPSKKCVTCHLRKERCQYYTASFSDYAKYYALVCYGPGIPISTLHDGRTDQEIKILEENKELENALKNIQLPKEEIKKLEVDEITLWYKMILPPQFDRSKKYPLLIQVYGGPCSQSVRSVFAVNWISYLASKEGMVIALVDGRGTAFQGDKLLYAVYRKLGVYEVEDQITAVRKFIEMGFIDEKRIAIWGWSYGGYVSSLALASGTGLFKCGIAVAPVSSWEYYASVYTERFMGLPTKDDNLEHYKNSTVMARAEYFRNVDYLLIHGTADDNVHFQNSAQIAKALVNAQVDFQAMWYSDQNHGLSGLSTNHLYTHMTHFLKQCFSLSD

[9] = Kinetic solubility; conditions: kinetic from dmso stock, Solubility, kinetic solubility; n = 1 or average of n = 2-3
Description: Kinetic solubility was measured as described in Comput Aided Mol Des 2015, 29, 795.

[10] = target: FAP (Mus musculus (Mouse), UniProt P97321); assay: FAP plasma inhibition assay, mouse plasma; type: biochemical; conditions: mouse plasma diluted 1:67, Ala-Pro-AMC 75 μM
FAP (Mus musculus (Mouse), UniProt P97321), sequence (P97321 24-761): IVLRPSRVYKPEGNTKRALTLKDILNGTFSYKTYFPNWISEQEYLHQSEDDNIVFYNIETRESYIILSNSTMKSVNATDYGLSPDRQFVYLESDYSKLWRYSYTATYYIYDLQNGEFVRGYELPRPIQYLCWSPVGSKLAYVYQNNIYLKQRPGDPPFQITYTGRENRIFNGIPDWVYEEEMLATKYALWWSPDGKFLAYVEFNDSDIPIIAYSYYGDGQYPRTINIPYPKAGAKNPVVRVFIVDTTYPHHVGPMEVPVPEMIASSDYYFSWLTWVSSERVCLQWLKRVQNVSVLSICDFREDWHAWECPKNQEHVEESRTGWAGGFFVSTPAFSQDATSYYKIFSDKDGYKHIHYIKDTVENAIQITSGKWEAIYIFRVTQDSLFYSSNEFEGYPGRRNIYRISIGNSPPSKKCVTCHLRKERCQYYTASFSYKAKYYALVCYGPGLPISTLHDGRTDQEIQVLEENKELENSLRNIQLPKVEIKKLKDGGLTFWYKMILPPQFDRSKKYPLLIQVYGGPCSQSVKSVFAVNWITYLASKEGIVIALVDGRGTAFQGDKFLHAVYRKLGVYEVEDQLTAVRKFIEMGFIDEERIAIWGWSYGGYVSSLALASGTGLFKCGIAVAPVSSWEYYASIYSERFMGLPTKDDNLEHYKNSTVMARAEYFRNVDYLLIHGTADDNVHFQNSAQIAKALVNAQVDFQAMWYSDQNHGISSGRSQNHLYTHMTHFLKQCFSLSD
Description: as §1

[11] = target: T1, FAP; assay: hFAP inhibition assay; type: biochemical; conditions: hFAP […], Ala-Pro-AMC 20 μM; n = 1 or geometric mean n = 2-3
Method in brief: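 Human FAP (0.48 nM) in 100 mM Tris HCl, 100 mM NaCl, 0.05% Chaps, pH 7.4 was preincubated 15 min at rt in the dark with compounds (10-point, 3-fold series from 50 μM). Substrate was added from a 40 μM solution, then 30 min at rt. Fluorescence read at ex 340/em 460 nm; IC50 from one-site dose-response fit of % inhibition.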
Target sequence in this assay (Q12884 38-760): as the sequence (Q12884 38-760) above

Prolyl endopeptidase, Prolyl Oligopeptidase (hPREP), sequence (P48147 whole entry): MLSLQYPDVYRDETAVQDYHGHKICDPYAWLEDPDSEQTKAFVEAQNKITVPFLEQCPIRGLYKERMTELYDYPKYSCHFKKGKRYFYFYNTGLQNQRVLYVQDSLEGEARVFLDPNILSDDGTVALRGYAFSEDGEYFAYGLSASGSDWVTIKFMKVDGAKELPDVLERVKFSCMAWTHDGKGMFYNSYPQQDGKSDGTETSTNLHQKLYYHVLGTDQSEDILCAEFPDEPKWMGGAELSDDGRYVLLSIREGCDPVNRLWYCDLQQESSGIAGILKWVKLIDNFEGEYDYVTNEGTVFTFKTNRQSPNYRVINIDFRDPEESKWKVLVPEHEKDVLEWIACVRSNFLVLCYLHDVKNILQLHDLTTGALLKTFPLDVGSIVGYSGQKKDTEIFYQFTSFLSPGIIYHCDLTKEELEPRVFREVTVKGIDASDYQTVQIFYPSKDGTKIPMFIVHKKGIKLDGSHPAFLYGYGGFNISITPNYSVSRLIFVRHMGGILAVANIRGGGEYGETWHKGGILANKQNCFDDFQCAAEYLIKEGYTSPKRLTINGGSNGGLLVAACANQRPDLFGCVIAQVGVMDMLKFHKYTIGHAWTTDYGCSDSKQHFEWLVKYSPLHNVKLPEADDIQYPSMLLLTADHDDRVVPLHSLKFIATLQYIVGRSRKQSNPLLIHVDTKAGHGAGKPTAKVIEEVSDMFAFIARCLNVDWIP

SMILES	IC50 [1] [nM]	hHep CLint [2] [μL/min/1E6]	microsomal CLint [3] [µL/min/mg]	rHep CLint [4] [μL/min/1E6]	Papp A→B [5] [×10⁻⁶ cm/s]	Papp B→A [5] [×10⁻⁶ cm/s]	efflux ratio [5]	IC50 [6] [nM]	hFAP Binding assay k(off) [7] [s⁻¹]	hFAP Binding assay k(on) [7] [M⁻¹ s⁻¹]	Kd [7] [nM]	IC50 [8] [nM]	solubility [9] [µM]	IC50 [10] [nM]	Papp [5] [×10⁻⁶ cm/s]	IC50 [11] [nM]
N#C[C@@H]1CSCN1C(=O)CNC(=O)c1ccnc2ccc(N3CCO[C@H](C(F)(F)F)C3)cc12 [Example 74, N-(2-((R)-4-Cyanothiazolidin-3-yl)-2-oxoethyl)-6-((S)-2-(trifluoromethyl)-morpholino)quinoline-4-carboxamide]	2300	<1	28	13	1.8	53	29	0.094	0.00016	1100000	0.14	0.2	180 (≈ 86.3 µg/mL)	0.3	–	–
N#C[C@@H]1CSCN1C(=O)CNC(=O)c1c(F)cnc2ccc(N3CCOCC3)cc12 [Example 2, (R)—N-(2-(4-Cyanothiazolidin-3-yl)-2-oxoethyl)-3-fluoro-6-morpholino-quinoline-4-carboxamide]	1700	<1	22	3	0.98	31	32	0.52	0.0038	410000	9.5	8.1	83 (≈ 35.6 µg/mL)	7.3	23	–
Cn1nccc1-c1ccc2nccc(C(=O)NCC(=O)N3CSC[C@H]3C#N)c2c1 [Example 174, (R)—N-(2-(4-Cyanothiazolidin-3-yl)-2-oxoethyl)-6-(1-methyl-1H-pyrazol-5-yl)quinoline-4-carboxamide]	87	–	12	7.2	0.54	25	46	0.26	0.00024	1900000	0.13	0.2	800 (≈ 325 µg/mL)	0.4	–	0.44
COc1ccc(-c2ccc3nccc(C(=O)NCC(=O)N4CSC[C@H]4C#N)c3c2)cn1 [Example 178, (R)—N-(2-(4-Cyanothiazolidin-3-yl)-2-oxoethyl)-6-(6-methoxypyridin-3-yl)quinoline-4-carboxamide]	120	–	16	7.2	–	–	–	0.042	0.00017	3100000	0.053	0.1	6 (≈ 2.6 µg/mL)	0.1	–	0.2
CC1(C)OCCN(c2ccc3nccc(C(=O)NCC(=O)N4CSC[C@H]4C#N)c3c2)C1=O [Example 16, (R)—N-(2-(4-Cyanothiazolidin-3-yl)-2-oxoethyl)-6-(2,2-dimethyl-3-oxomorpholino)quinoline-4-carboxamide]	1600	–	< 3	<1	0.16	4.2	26	0.11	0.000041	740000	0.054	0.2	170 (≈ 77.1 µg/mL)	0.4	–	–

More lines, now with the values ahead:

IC50 [1] [nM]	hHep CLint [2] [μL/min/1E6]	microsomal CLint [3] [µL/min/mg]	rHep CLint [4] [μL/min/1E6]	Papp A→B [5] [×10⁻⁶ cm/s]	Papp B→A [5] [×10⁻⁶ cm/s]	efflux ratio [5]	IC50 [6] [nM]	hFAP Binding assay k(off) [7] [s⁻¹]	hFAP Binding assay k(on) [7] [M⁻¹ s⁻¹]	Kd [7] [nM]	IC50 [8] [nM]	solubility [9] [µM]	IC50 [10] [nM]	Papp [5] [×10⁻⁶ cm/s]	IC50 [11] [nM]	SMILES
1200	<1	7.3	<1	2	29	15	0.37	0.00012	1900000	0.065	0.3	62 (≈ 26.8 µg/mL)	0.6	–	–	N#C[C@@H]1CSCN1C(=O)CNC(=O)c1ccnc2ccc(N3CC(F)(CF)C3)cc12 [Example 157, (R)—N-(2-(4-Cyanothiazolidin-3-yl)-2-oxoethyl)-6-(3-fluoro-3-(fluoromethyl)azetidin-1-yl)quinoline-4-carboxamide]
920	–	8	1.8	0.44	8.5	19	0.067	0.000058	850000	0.068	0.2	480 (≈ 210 µg/mL)	0.3	–	–	C[C@@H]1CCCN(c2ccc3nccc(C(=O)NCC(=O)N4CSC[C@H]4C#N)c3c2)C1=O (single isomer, unassigned) [Example 204, N-(2-((R)-4-Cyanothiazolidin-3-yl)-2-oxoethyl)-6-((R*)-3-methyl-2-oxopiperidin-1-yl)quinoline-4-carboxamide]
570	–	17	2.9	2.7	40	15	0.067	0.00012	2800000	0.045	0.1	40 (≈ 17.8 µg/mL)	0.2	–	–	CC(F)(F)C1CN(c2ccc3nccc(C(=O)NCC(=O)N4CSC[C@H]4C#N)c3c2)C1 [Example 147, (R)—N-(2-(4-Cyanothiazolidin-3-yl)-2-oxoethyl)-6-(3-(1,1-difluoroethyl)-azetidin-1-yl)quinoline-4-carboxamide]
3500	–	12	2.9	0.4	8	20	0.26	0.000063	440000	0.15	0.4	540 (≈ 236 µg/mL)	0.5	–	–	C[C@H]1CCCN(c2ccc3nccc(C(=O)NCC(=O)N4CSC[C@H]4C#N)c3c2)C1=O (single isomer, unassigned) [Example 203, N-(2-((R)-4-Cyanothiazolidin-3-yl)-2-oxoethyl)-6-((R*)-3-methyl-2-oxopiperidin-1-yl)quinoline-4-carboxamide]
1200	–	< 3	1.8	0.4	4.8	12	0.39	0.000061	190000	0.33	0.9	830 (≈ 366 µg/mL)	1.4	–	–	CN1CCC(F)(c2ccc3nccc(C(=O)NCC(=O)N4CSC[C@H]4C#N)c3c2)CC1 [Example 195, (R)—N-(2-(4-Cyanothiazolidin-3-yl)-2-oxoethyl)-6-(4-fluoro-1-methyl-piperidin-4-yl)quinoline-4-carboxamide]
